For series [1], the target named is T1, Glucagon-like peptide 1 receptor (Homo sapiens, UniProt P43220). Description: Agonist activity at human GLP-1R expressed in HEK293 cells assessed as stimulation of cAMP accumulation incubated for 20 mins in presence of 0% HSA. Format: functional, cell-based. A general note: Cyclic AMP is a second messenger, typically raised through Gs and lowered through Gi signalling.

Series [2] deals with T1, Glucagon-like peptide 1 receptor. Description: Agonist activity at human GLP-1R expressed in HEK293 cells assessed as stimulation of cAMP accumulation incubated for 20 mins in presence of 4.4% HSA. Format: functional, cell-based.
Series [3] relates to Mus musculus. Kind of series: Reduction in body weight in C57BL/6 mouse model of diet induced obesity at 25 nmol/kg, sc BID for 1 week relative to control. On the set-up: scale not given: the % may be the effect or the level left. Format: functional. The settings on record: time 1 weeks.
Series [4] addresses T1, Glucagon-like peptide 1 receptor. Description: Ratio of EC50 for agonist activity at human GLP-1R expressed in HEK293 cells in presence of 4.4% HSA to EC50 for agonist activity at human GLP-1R expressed in HEK293 cells in presence of 0% HSA. Format: cell-based.
In the next series the target is serum albumin (Homo sapiens, UniProt P02768). Description: Binding affinity to human serum albumin in PBS pH 7.4 at 100 ug/mL incubated for 2 hrs by LC-MS/MS analysis relative to control. Format: ADME. The following applies: at 100 µg/mL, read-out: PB (converted).
Series [5] deals with Mus musculus. Description: Reduction in food intake in C57BL/6 mouse model of diet induced obesity at 25 nmol/kg, sc BID for 1 week relative to control. Format: functional, organism-based. The following applies: time 1.0 weeks.
The test system of series [6] is Mus musculus. Kind of series: Hypoglycemic activity in non-fasted db/db mouse assessed as decrease in blood glucose concentration at 25 nmol/kg, sc by OGTT method. Format: functional, organism-based.
The test system of series [7] is Mus musculus. Description: Reduction in fasted hyperglycemia in C57BL/6 mouse model of diet induced obesity at 25 nmol/kg, sc BID for 1 week relative to control. Format: functional, organism-based. The following applies: time 1.0 weeks.
The subject of series [8] is Mus musculus. Kind of series: Reduction in body weight in C57BL/6 mouse model of diet induced obesity at 25 nmol/kg, sc dosed every 2 days for 1 week relative to control. Format: functional. The following applies: time 1 weeks. More on the design: scale not given: the % may be the effect or the level left.
For series [9], the system named is Mus musculus. Description: Hypoglycemic activity in non-fasted db/db mouse assessed as duration of time during which decrease in blood glucose concentration is observed at 25 nmol/kg, sc by OGTT method. Format: functional.
Series [10] has as its system Mus musculus. Kind of series: Reduction in fasted hyperglycemia in C57BL/6 mouse model of diet induced obesity at 25 nmol/kg, sc dosed every 2 days for 1 week relative to control. Format: functional, organism-based. The following applies: time 1.0 weeks.
The test system of series [11] is Mus musculus. Description: Reduction in food intake in C57BL/6 mouse model of diet induced obesity at 25 nmol/kg, sc dosed every 2 days for 1 week relative to control. Format: functional, organism-based. The following applies: time 1.0 weeks.

The structures appear in SMILES notation. The source made the active and inactive calls. No cut-off for these calls is given here. Where a SMILES comes first, the peptide text is derived from it.

This note sets out measurements from ChEMBL document CHEMBL4699602, “Stapled and Xenopus Glucagon-Like Peptide 1 (GLP-1)-Based Dual GLP-1/Gastrin Receptor Agonists with Improved Metabolic Benefits in Rodent Models of Obesity and Diabetes” (J Med Chem, 2020).

serum albumin, sequence (P02768 whole entry): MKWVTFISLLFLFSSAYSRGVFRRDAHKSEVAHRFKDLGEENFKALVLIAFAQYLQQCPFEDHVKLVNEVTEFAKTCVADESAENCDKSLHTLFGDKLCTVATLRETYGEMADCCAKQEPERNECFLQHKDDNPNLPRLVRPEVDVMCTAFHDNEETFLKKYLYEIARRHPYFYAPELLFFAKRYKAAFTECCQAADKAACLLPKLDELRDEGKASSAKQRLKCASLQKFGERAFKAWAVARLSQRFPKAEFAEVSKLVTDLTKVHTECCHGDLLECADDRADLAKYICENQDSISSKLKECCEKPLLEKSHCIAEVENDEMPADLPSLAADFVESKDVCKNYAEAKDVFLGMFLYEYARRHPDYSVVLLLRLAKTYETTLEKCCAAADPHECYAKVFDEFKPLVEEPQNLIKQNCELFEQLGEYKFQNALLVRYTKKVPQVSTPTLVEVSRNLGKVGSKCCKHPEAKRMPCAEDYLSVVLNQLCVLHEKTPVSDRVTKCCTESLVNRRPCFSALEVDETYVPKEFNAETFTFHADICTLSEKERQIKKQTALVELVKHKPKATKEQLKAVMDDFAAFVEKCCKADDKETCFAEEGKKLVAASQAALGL
T1 sequence (P43220 whole entry): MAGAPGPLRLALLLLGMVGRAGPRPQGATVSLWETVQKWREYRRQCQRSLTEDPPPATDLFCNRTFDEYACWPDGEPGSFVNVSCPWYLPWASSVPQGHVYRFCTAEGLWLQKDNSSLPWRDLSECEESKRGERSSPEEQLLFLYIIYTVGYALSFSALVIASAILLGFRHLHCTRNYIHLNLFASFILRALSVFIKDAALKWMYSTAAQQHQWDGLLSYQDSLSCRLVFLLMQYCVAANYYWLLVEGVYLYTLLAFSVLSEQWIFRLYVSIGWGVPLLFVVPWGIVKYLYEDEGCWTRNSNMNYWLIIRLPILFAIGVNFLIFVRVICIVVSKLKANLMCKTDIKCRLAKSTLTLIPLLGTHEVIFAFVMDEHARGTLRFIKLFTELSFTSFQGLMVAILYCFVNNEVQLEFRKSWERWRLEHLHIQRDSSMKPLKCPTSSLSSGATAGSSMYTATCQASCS

A word on the EC50: it is the midpoint of the concentration-response curve. For `CCCCCCCCCCCCCCCC(=O)NCCCCCCNC(=O)C1CCCCNC(=O)CCN2C(=O)CC(SC[C@H](NC(=O)[C@H](Cc3ccc(O)cc3)NC(=O)[C@H](CCC(=O)O)NC(=O)[C@@H](NC(=O)[C@@H](NC(=O)[C@H](CC(=O)O)NC(=O)[C@H](CC(N)=O)NC(=O)[C@@H](NC(=O)[C@H](Cc3ccc(O)cc3)NC(=O)[C@@H](NC(=O)CNC(=O)[C@H](CCC(=O)O)NC(=O)C(C)(C)NC(=O)[C@@H](N)Cc3c[nH]cn3)[C@@H](C)O)[C@@H](C)O)C(C)C)[C@@H](C)O)C(=O)N[C@@H](CCC(=O)O)C(=O)N[C@@H](CCC(=O)O)C(=O)N[C@@H](CCC(=O)O)C(=O)N[C@@H](C)C(=O)N[C@@H](C)C(=O)N[C@@H](CCCCN)C(=O)N[C@H](C(=O)N[C@@H](Cc3ccccc3)C(=O)N[C@H](C(=O)N[C@@H](CCC(=O)O)C(=O)N[C@@H](Cc3c[nH]c4ccccc34)C(=O)N[C@@H](CC(C)C)C(=O)N[C@H](C(=O)N[C@@H](CCCCN)C(=O)NCC(=O)N[C@@H](CCCCN)C(=O)N3CCC[C@H]3C(=O)N[C@@H](CO)C(=O)N[C@@H](CO)C(=O)NCC(=O)N[C@@H](C)C(=O)N3CCC[C@H]3C(=O)N3CCC[C@H]3C(=O)N3CCC[C@H]3C(=O)N[C@@H](CO)C(N)=O)[C@@H](C)CC)[C@@H](C)CC)CSC3CC(=O)N(CCC(=O)N1)C3=O)C2=O` (stereo not given in full) (HELM PEPTIDE1{H.[Aib].E.G.T.Y.T.N.D.V.T.E.Y.C.E.E.E.A.A.K.C.F.I.E.W.L.I.K.G.K.P.S.S.G.A.P.P.P.S.[am]}|CHEM1{[CCCCCCCCCCCCCCCC(=O)NCCCCCCNC(=O)C(CCCCNC(=O)CCN1C(=O)CC([*:1])C1=O)NC(=O)CCN1C(=O)CC([*:2])C1=O]}$PEPTIDE1,CHEM1,14:R3-1:R1|PEPTIDE1,CHEM1,21:R3-1:R2$$$V2.0), the EC50 was 0.041 nM in series [1] and 0.91 nM in [2]. The Activity in the series on Mus musculus [3] turned out to be 14.4%. Moreover, the Ratio EC50 in series [4] came out at 22.2. Moreover, on serum albumin, the fraction unbound at 2 h, 100 ug/mL is 0.162. Moreover, the outcome with Mus musculus [5], in the series with Mus musculus [6] and with Mus musculus [7] was Active.

As for `CCCCCCCCCCCCCCCC(=O)NCCCCCCNC(=O)C1CCCCNC(=O)CCN2C(=O)CC(SC[C@H](NC(=O)[C@H](CCCCN)NC(=O)[C@H](C)NC(=O)[C@H](C)NC(=O)[C@H](CCC(=O)O)NC(=O)[C@H](CCC(=O)O)NC(=O)[C@H](CCC(=O)O)NC(=O)[C@H](CC(C)C)NC(=O)[C@H](Cc3ccc(O)cc3)NC(=O)[C@H](CCC(=O)O)NC(=O)[C@@H](NC(=O)[C@@H](NC(=O)[C@H](CC(=O)O)NC(=O)[C@H](CC(N)=O)NC(=O)[C@@H](NC(=O)[C@H](Cc3ccc(O)cc3)NC(=O)[C@@H](NC(=O)CNC(=O)[C@H](CCC(=O)O)NC(=O)C(C)(C)NC(=O)[C@@H](N)Cc3c[nH]cn3)[C@@H](C)O)[C@@H](C)O)C(C)C)[C@@H](C)O)C(=O)N[C@@H](Cc3ccccc3)C(=O)N[C@@H]([C@@H](C)CC)C(=O)N[C@@H](CCC(=O)O)C(=O)N[C@@H](Cc3c[nH]c4ccccc34)C(=O)N[C@@H](CC(C)C)C(=O)N[C@@H]([C@@H](C)CC)C(=O)N[C@H](C(=O)NCC(=O)N[C@@H](CCCCN)C(=O)N3CCC[C@H]3C(=O)N[C@@H](CO)C(=O)N[C@@H](CO)C(=O)NCC(=O)N[C@@H](C)C(=O)N3CCC[C@H]3C(=O)N3CCC[C@H]3C(=O)N3CCC[C@H]3C(=O)N[C@@H](CO)C(N)=O)CSC3CC(=O)N(CCC(=O)N1)C3=O)C2=O` (stereo not given in full) (HELM PEPTIDE1{H.[Aib].E.G.T.Y.T.N.D.V.T.E.Y.L.E.E.E.A.A.K.C.F.I.E.W.L.I.C.G.K.P.S.S.G.A.P.P.P.S.[am]}|CHEM1{[CCCCCCCCCCCCCCCC(=O)NCCCCCCNC(=O)C(CCCCNC(=O)CCN1C(=O)CC([*:1])C1=O)NC(=O)CCN1C(=O)CC([*:2])C1=O]}$PEPTIDE1,CHEM1,21:R3-1:R1|PEPTIDE1,CHEM1,28:R3-1:R2$$$V2.0), the EC50 in series [1] was determined as 0.054 nM; in series [2] it was 1.3 nM. In the series on Mus musculus [3], this compound yielded an Activity of 15.2%. Also, the Ratio EC50 in [4] was determined as 24.1. At serum albumin, the fraction unbound at 2 h, 100 ug/mL was 0.15. Besides, the result in the series on Mus musculus [5], in the series on Mus musculus [6] and in the series on Mus musculus [7] was Active.

`CC[C@H](C)[C@@H]1NC(=O)[C@H](CC(C)C)NC(=O)[C@H](Cc2c[nH]c3ccccc23)NC(=O)[C@H](CCC(=O)O)NC(=O)[C@H]([C@@H](C)CC)NC(=O)[C@H](Cc2ccccc2)NC(=O)[C@@H](NC(=O)[C@H](CCCCN)NC(=O)[C@H](C)NC(=O)[C@H](C)NC(=O)[C@H](CCC(=O)O)NC(=O)[C@H](CCC(=O)O)NC(=O)[C@H](CCC(=O)O)NC(=O)[C@H](CC(C)C)NC(=O)[C@H](Cc2ccc(O)cc2)NC(=O)[C@H](CCC(=O)O)NC(=O)[C@@H](NC(=O)[C@@H](NC(=O)[C@H](CC(=O)O)NC(=O)[C@H](CC(N)=O)NC(=O)[C@@H](NC(=O)[C@H](Cc2ccc(O)cc2)NC(=O)[C@@H](NC(=O)CNC(=O)[C@H](CCC(=O)O)NC(=O)C(C)(C)NC(=O)[C@@H](N)Cc2c[nH]cn2)[C@@H](C)O)[C@@H](C)O)C(C)C)[C@@H](C)O)CSC2CC(=O)N(CCC(=O)NC(C(=O)NCCCCCCNC(=O)COCCOCCNC(=O)CCC(NC(=O)CCCCCCCCCCCCCCCCC(=O)O)C(=O)O)CCCCNC(=O)CCN3C(=O)CC(SC[C@@H](C(=O)NCC(=O)N[C@@H](CCCCN)C(N)=O)NC1=O)C3=O)C2=O` (stereo not given in full) (HELM PEPTIDE1{H.[Aib].E.G.T.Y.T.N.D.V.T.E.Y.L.E.E.E.A.A.K.C.F.I.E.W.L.I.C.G.K.[am]}|CHEM1{[O=C(O)CCCCCCCCCCCCCCCCC(=O)NC(CCC(=O)NCCOCCOCC(=O)NCCCCCCNC(=O)C(CCCCNC(=O)CCN1C(=O)CC([*:2])C1=O)NC(=O)CCN1C(=O)CC([*:1])C1=O)C(=O)O]}$PEPTIDE1,CHEM1,21:R3-1:R1|PEPTIDE1,CHEM1,28:R3-1:R2$$$V2.0) had an Activity with Mus musculus [8] of 13.4%. Moreover, the values for the EC50 in [1] and in [2] were 0.069 nM and 3.8 nM, respectively. For the same compound, the Time with Mus musculus [9] was determined as 24 h. For the same compound, the Ratio EC50 in [4] worked out at 55.1. Besides, the fraction unbound at 2 h, 100 ug/mL on serum albumin was 0.084. Besides, the outcome in the series with Mus musculus [10], in the series on Mus musculus [6] and in the series with Mus musculus [11] was Active.
